Laboratory results reported in patent US9290477B2, “Inhibitors of β-secretase” (Vitae Pharmaceuticals, Inc., priority 2012, dated 2016).

How the values were obtained:
[1] = test system: Abeta1-x production in H4 neuroglioma cell line stably expressing human APP; experiment: H4-APPwt Cell-Based Assay (Assay 2), production of Abeta1-x peptides; settings: Table 1; H4 cells expressing human APP, Abeta1-x by AlphaLISA, 18 h
Experimental: Cellular potency of the compounds was assessed in an assay monitoring production of Abeta1-x peptides in the H4 neuroglioma cell line (ATCC, Cat. #HTB-148) stably expressing human APP. Tested compounds were dissolved in DMSO and pre-diluted in the culture medium (DMEM containing 10% FBS and 1% penicillin/streptomycin) to achieve twice the final concentration of the compounds in the assay. Equal volumes of the 2× solutions of the tested compounds and cell suspension were added to a 96-well culture plate, so that each well contained ˜10,000 cells in a final volume of 200 μl. Final concentration of DMSO in the assay was 0.2%. The plates were incubated for 5 h at 37° C., 5% CO2 to allow cells to attach to the bottom of the wells in the presence of the tested compounds. The media was removed and replaced with fresh media containing tested compounds at the same final concentration. The plates were incubated for 18 h at 37° C., 5% CO2. Concentrations of Ab1-x were determined using AlphaLISA immunoassay (PerkinElmer, Cat. # AL288) following the manufacturer's protocol. Concentrations of Abeta1-x in the wells containing either DMSO or 10 μM beta-secretase inhibitor (BACE inhibitor IV, EMD Bioscience, Cat. #565788) were used as uninhibited and background controls, respectively, for calculating percent inhibition values for each well with the tested compounds.

[2] = target: truncated human beta-secretase, BACE1 (amino acids 1-454) (Homo sapiens (Human), UniProt P56817); experiment: BACE1 Assay (Assay 1), fluorescence quench assay; type: biochemical; settings: Table 1; pH 4.4, 1 μM substrate peptide; read-out: BACE 1 IC50 nM (Assay 1)
Experimental: The substrate was dissolved at 1 mg/ml in DMSO.
The assay was performed in the presence of OptiMEM™ (supernatant collected over 24 h and cleared from cellular debris by centrifugation) containing the ectodomain of BACE1, 25 μl water containing the desired 2-fold concentration of test compound and 2% DMSO, 1 μM substrate peptide, 20 mM NaOAc, pH 4.4, and 0.04% Triton-X100 in a total assay volume of 50 μl in a 384 well plate. In general, 25 μl of compound dilution were added to the plate followed by the addition of 10 μl of BACE1 containing OptiMEM™ diluted 1:10 in water with 0.2% Triton X-100. The reaction was started with the addition of 15 μl substrate in NaOAc buffer. The reaction was incubated at rt (dark) in an Envision® multilabel reader (Perkin Elmer) and the cleavage of the substrate was recorded as kinetic for 60 min at ex: 485 nm, em: 538 nm. Blank wells containing no enzyme were included on each plate.
The intensity of fluorescence was regressed against time in order to derive velocities of reaction in all 384 wells. These velocities were used for calculating percent control using an uninhibited control containing 1% DMSO as 100% and a blank control performed in the absence of enzyme as 0%. IC50 values were calculated by fitting percent control vs. test compound concentration using Assay Explorer®.

Chain of truncated human beta-secretase, BACE1 (amino acids 1-454) (P56817 22-454): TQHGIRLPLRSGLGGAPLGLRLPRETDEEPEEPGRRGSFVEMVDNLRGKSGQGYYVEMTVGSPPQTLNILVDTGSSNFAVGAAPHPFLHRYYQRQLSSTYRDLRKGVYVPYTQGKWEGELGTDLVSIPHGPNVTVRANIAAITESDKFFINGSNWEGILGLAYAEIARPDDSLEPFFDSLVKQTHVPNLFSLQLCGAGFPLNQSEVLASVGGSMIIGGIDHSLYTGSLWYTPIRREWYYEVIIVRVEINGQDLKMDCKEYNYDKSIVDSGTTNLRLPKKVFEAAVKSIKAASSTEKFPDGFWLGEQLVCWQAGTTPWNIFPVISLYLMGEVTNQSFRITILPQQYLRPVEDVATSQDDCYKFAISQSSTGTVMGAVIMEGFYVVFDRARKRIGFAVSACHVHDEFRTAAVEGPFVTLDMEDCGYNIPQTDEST

Row | Compound | IC50 [1] | IC50 [2]
1 | CO[C@H]1[C@H](C)C[C@@]2(Cc3ccc(Br)cc3[C@@]23N=C(C)C(N)=N3)C[C@@H]1C [Example 1] | 4.5 nM | 4 nM
2 | CC1=N[C@]2(N=C1N)c1cc(C#N)ccc1C[C@@]21C[C@@H](C)[C@H](O)[C@@H](C)C1 [Example 3] | 34 nM | 37 nM
3 | CO[C@H]1[C@H](C)C[C@@]2(Cc3ccc(-c4cncc(F)c4)cc3[C@@]23N=C(C)C(N)=N3)C[C@@H]1C [Example 6] | 0.6 nM | 1.5 nM
4 | CC#Cc1cncc(-c2ccc3c(c2)[C@@]2(N=C(C)C(N)=N2)[C@@]2(C3)C[C@@H](C)[C@H](OC)[C@@H](C)C2)c1 [Example 7] | 4 nM | 8.2 nM

Results, then the compound that gave them:

Row | IC50 [1] | IC50 [2] | Compound
5 | 4 nM | 3.5 nM | CO[C@H]1[C@H](C)C[C@@]2(Cc3ccc(C#N)cc3[C@@]23N=C(C)C(N)=N3)C[C@@H]1C [Example 2]
6 | 6.2 nM |  | CO[C@H]1CC[C@@]2(Cc3ccc(Br)cc3C23N=C(C)C(N)=N3)C[C@@H]1C (stereo partly shown) [Example 4]
7 | 2 nM | 1.5 nM | CO[C@H]1CC[C@@]2(Cc3ccc(C#N)cc3[C@@]23N=C(C)C(N)=N3)C[C@@H]1C [Example 5]
